Consider 9 compounds from ChEMBL document CHEMBL1201862, “PubChem BioAssay data set” (2004).

Test in all cases: NCI tumour cell line growth inhibition, 48 h
Assay [1] concerns SF-295.
The test system of assay [2] is SR.
Assay [3] has as its system HT-29.
In assay [4] the test system is TK-10.
Assay [5] deals with T47D.
Assay [6] has as its system BT-549.
The test system of assay [7] is NCI-H23.
In assay [8] the test system is HCT-116.
For assay [9], the system named is OVCAR-4.
In assay [10] the test system is NCI-H460.
Assay [11] relates to DU-145.
Assay [12] relates to UACC-62.
For assay [13], the system named is A549.
Assay [14] concerns Malme-3M.
Assay [15] concerns 786-0.
Assay [16] deals with HOP-62.
Assay [17] has as its system UO-31.
For assay [18], the system named is CAKI-1.

Each structure is given as a SMILES string.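 Growth conditions: 96-well plates. Treatment: test compound, 48 hours, 5 concentrations. Analysis: linear interpolation between bracketing concentrations; unreached endpoints set to highest concentration. GI50 = concentration required for 50% inhibition of growth.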 Active and inactive are the calls of the source. Cut-off read from the data, not from the text of the source: active = GI50 up to about 1.1 µM and inactive = higher. Non-standard residues stand in square brackets, D forms with d. Residues, ends and D or L forms follow the SMILES beside them. ξ: configuration not given here. *: point of attachment. ξF = NC(Cc1ccccc1)C(=O)O; Cbz = O=C(OCc1ccccc1)*

As to `O=C1C(Cl)=C(Oc2ccc([N+](=O)[O-])cc2)C(=O)c2c(O)ccc(O)c21`, the GI50 was > 100 µM (inactive) in [1]; 3.78 µM (inactive) in assay [2]; 33.9 µM (inactive) in [3]; 44.1 µM (inactive) in assay [4]; 29.9 µM (inactive) in assay [5]; 49.3 µM (inactive) in assay [6]. In addition, the GI50 was > 57.9 µM (inactive) in [7]; 49.3 µM (inactive) in assay [8]; 51.8 µM (inactive) in assay [9]; > 100 µM (inactive) in assay [10]; > 100 µM (inactive) in assay [11]; > 63.7 µM (inactive) in [12]. In addition, the GI50 in assay [13] was > 100 µM (inactive); in assay [14], 18.1 µM (inactive); in [15] it was 67.9 µM (inactive); in assay [16] it was > 100 µM (inactive); in assay [17], > 100 µM (inactive).

Take `O=c1cc(N2CCN(c3cc(=O)n4ccccc4n3)CC2)oc2ccccc12`: the GI50 in assay [1] was > 76.7 µM (inactive); in assay [3] it was 38 µM (inactive); in [4], > 100 µM (inactive); in assay [5], > 73.5 µM (inactive); in assay [6], 68.1 µM (inactive); in assay [7], 99.1 µM (inactive). Further, the GI50 in assay [8] was > 100 µM (inactive); in assay [9], > 100 µM (inactive); in [10], 26.6 µM (inactive); in assay [11] it was > 100 µM (inactive); in assay [18], 34 µM (inactive); in [12] it was > 100 µM (inactive). Also, the GI50 in assay [13] is 32.3 µM (inactive); in assay [14], > 100 µM (inactive); in [15], > 76 µM (inactive); in assay [17] it was 38.1 µM (inactive).

On to `CSc1nc(SC)c2ncn(C3CC(Oc4ccc(C)cc4)C(COc4ccc(C)cc4)O3)c2n1` (stereo unspecified), for which the GI50 in [1] is > 100 µM (inactive); in [3], > 100 µM (inactive); in assay [4], > 100 µM (inactive); in [5], 63.1 µM (inactive); in [6], > 100 µM (inactive); in [7], > 100 µM (inactive). Besides, the GI50 in assay [8], in [9], in assay [10], in assay [11], in [18] and in [12] was > 100 µM (inactive) in each case. In addition, the GI50 in assay [13] is > 100 µM (inactive); in [14], > 100 µM (inactive); in assay [15], > 100 µM (inactive); in [16], > 100 µM (inactive); in assay [17], 0.984 µM (active).

On to `C=C1c2nc3ccccc3n2C=C(c2ccc(Cl)cc2)N1c1ccc(OCCN2CCOCC2)cc1`, for which the GI50 in assay [2] was 12 µM (inactive); in assay [3] it was 12.2 µM (inactive); in assay [4], 35.9 µM (inactive); in [5], 21.4 µM (inactive); in [6], 39.3 µM (inactive); in assay [7] it was 28.2 µM (inactive). Also, the GI50 in [8] is 26.2 µM (inactive); in assay [9] it was 12.1 µM (inactive); in [10], 5.47 µM (inactive); in assay [11], 49.8 µM (inactive); in [12], 19.9 µM (inactive); in [13] it was 27.4 µM (inactive). For the same compound, the GI50 in assay [14] was 52 µM (inactive); in assay [15], 25.2 µM (inactive); in [16], 52.6 µM (inactive); in assay [17], 33.4 µM (inactive).

Take `O=c1[nH]nc(Cc2ccccc2)n1N=C1CCCCC1`: the GI50 in assay [1] is > 100 µM (inactive); in [3] it was 58.7 µM (inactive); in assay [4], > 100 µM (inactive); in assay [5] it was > 100 µM (inactive); in [6], > 100 µM (inactive); in assay [7], > 100 µM (inactive). Moreover, the GI50 in assay [8], in assay [9], in assay [10], in [11], in assay [18] and in assay [12] was > 100 µM (inactive) throughout. Further, the GI50 in assay [13], in assay [14], in assay [15], in assay [16] and in [17] was > 100 µM (inactive) in each case.

`CN1C(=O)N/C(=C\c2ccc(S(=O)(=O)NN)cc2)C1=O`: the GI50 in [1], in [3], in assay [4], in assay [5], in [6] and in [7] was > 100 µM (inactive) in each case. The GI50 in assay [8], in assay [9], in assay [11], in assay [18], in assay [12] and in [13] was > 100 µM (inactive) in each case. The GI50 in assay [14], in assay [15], in assay [16] and in [17] was > 100 µM (inactive) in each case.

As to `CCCCNC(=S)Nc1nc(C(=O)NNC(=S)Nc2ccccc2)cs1`, the GI50 in assay [1], in assay [3], in assay [4], in assay [5], in assay [6] and in [7] was > 100 µM (inactive) throughout. Further, the GI50 in assay [8], in [9], in [10], in [11], in assay [18] and in assay [12] was > 100 µM (inactive) each time. For the same compound, the GI50 is > 100 µM (inactive) in assay [13], 40.1 µM (inactive) in assay [15], > 100 µM (inactive) in [16] and > 100 µM (inactive) in [17].

In the case of `Cc1ccc(/C=C2\CN(C)CC3C2=NN(c2ccccc2)C3c2ccc(C)cc2)cc1` (stereo unspecified), the GI50 in assay [1], in [3], in assay [4], in assay [5], in [6] and in assay [7] was > 100 µM (inactive) each time. The GI50 in assay [8], in assay [9], in assay [10], in assay [11], in assay [18] and in assay [12] was > 100 µM (inactive) in each case. Besides, the GI50 in assay [13] was > 100 µM (inactive); in assay [14], 36.6 µM (inactive); in assay [15], > 100 µM (inactive); in assay [16], > 100 µM (inactive); in [17], > 100 µM (inactive).

Consider `CCOC(=O)CNC(=O)C(Cc1ccccc1)NC(=O)OCc1ccccc1` (stereo unspecified) (Cbz-[ξF]-Gly-OEt), for which the GI50 in assay [1] was > 100 µM (inactive); in assay [2], > 100 µM (inactive); in [3], > 100 µM (inactive); in assay [5], 71.9 µM (inactive); in [6], > 100 µM (inactive); in assay [7], > 100 µM (inactive). The GI50 in [8] was > 100 µM (inactive); in assay [10], > 100 µM (inactive); in [11] it was > 100 µM (inactive); in [13] it was > 100 µM (inactive); in assay [14], 86.3 µM (inactive); in assay [15] it was > 100 µM (inactive). Also, the GI50 in assay [16] and in assay [17] was > 100 µM (inactive) in each case.
